This is an account of results in US8486965B2, “Pyrrolo[2,3-b]pyridine derivative and use thereof for treatment of cancer” (Takeda Pharmaceutical Company Limited, priority 2009, dated 2013).

The first assay deals with mouse medulloblastoma. Description: In vivo anti-tumor test, mouse medulloblastoma allogeneic transplantation model. The settings on record: 1 mg/kg, orally once a day for 2 weeks; subcutaneous medulloblastoma in nude mouse; at the end of the test; p < 0.025 (Dunnett's test). As to the method: According to the description in Sasaki, K. et al., (2006) Cancer Res. 66: 4215-4222, an anti-tumor effect of a compound was evaluated using a mouse medulloblastoma allogeneic transplantation model. To be precise, Patched 1 gene mutant mouse (lineage name: Ptch1tm1Mps/J) was purchased from The Jackson Laboratory and p53 gene mutant mouse (lineage name: P53N4-M, Nomenclature: B6.129-Trp53tm/BrdN4) was purchased from Taconic, and a mouse of Patched 1(+/−), p53(−/−) phenotype was prepared by mating. […]
An anti-tumor test was performed using a tumor passaged by subcutaneous transplantation. […] The tumor diameter after transplantation was measured and, when the tumor size reached 150-250 mm^3, the anti-tumor test was started using 5 mice per group.
The test compound was prepared to achieve a dose of 1 mg/kg with a 0.5% methylcellulose (Shin-Etsu Chemical Co., Ltd., Cat. No. SM-100) suspension, and orally administered once a day for 2 weeks. The tumor size was calculated based on the longer diameter and shorter diameter of the tumor measured with an electron vernier caliper. After the start of the test, the tumor size was measured every 2 or 3 days and the growth rate of the tumor size was calculated. […]
Regarding `CCc1nc2c(cc1NC(=O)c1ccccc1)c(OC(C)C)c(C(=O)NC1CCN(C(=O)CO)CC1)n2C` [Example 46, 6-ethyl-N-[1-(hydroxyacetyl)piperidin-4-yl]-1-methyl-3-(1-methylethoxy)-5-[(phenylcarbonyl)amino]-1H-pyrrolo[2,3-b]pyridine-2-carboxamide], the “T/C (%) (growth rate of the tumor size)” value came to 51%.

In another assay the test system is Hedgehog signal transduction system (Smo). Nature of the assay: Gli reporter luciferase assay in NIH-3T3/Gli reporter cells stimulated with mouse Shh-N end fragment. It is filed as cell-based. The settings on record: NIH3T3; 1 μM compound; NIH-3T3/Gli reporter cells with mouse Shh-N end fragment culture supernatant, 48 hr; luciferase activity, control without compound as 100; read-out: inhibition rate (%) at 1 μM. An outline of the steps: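 NIH-3T3 cells stably carrying a luciferase reporter driven by 8× Gli-binding sites and chicken δ-crystalline promoter, plated at 1×10^4 cells/well and cultured overnight at 37° C in 10% FBS D-MEM. Compound added with recombinant mouse Shh-N fragment (aa 1–198, HEK293-expressed) to induce signaling; luciferase read-out.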
As for `CCc1nc2c(cc1NC(=O)c1ccccc1)c(OC(C)C)c(C(=O)NC1CCN(C(=O)CO)CC1)n2C` [Example 46, 6-ethyl-N-[1-(hydroxyacetyl)piperidin-4-yl]-1-methyl-3-(1-methylethoxy)-5-[(phenylcarbonyl)amino]-1H-pyrrolo[2,3-b]pyridine-2-carboxamide], the inhibition at 1 µM was 98%.
On to `CCc1nc2c(cc1NC(=O)c1ccccc1)c(OCC(F)(F)F)c(C(=O)NC1CC[S+]([O-])CC1)n2C` (centres unmarked) [Example 41, 6-ethyl-1-methyl-N-(1-oxidotetrahydro-2H-thiopyran-4-yl)-5-[(phenylcarbonyl)amino]-3-(2,2,2-trifluoroethoxy)-1H-pyrrolo[2,3-b]pyridine-2-carboxamide], for which the inhibition at 1 µM came out at 96%.
The same measure, in the same setting: for `CCc1cc2c(cc1NC(=O)c1ccc(Cl)cc1)c(OC(C)C)c(C(=O)NC1CCN(C(=O)CO)CC1)n2C` [Example 169, 5-{[(4-chlorophenyl)carbonyl]amino}-6-ethyl-N-[1-(hydroxyacetyl)piperidin-4-yl]-1-methyl-3-(1-methylethoxy)-1H-indole-2-carboxamide] the value was 99%.
Same read-out and setting: for `CCc1nc2c(cc1NC(=O)c1ccoc1)c(OCC(F)(F)F)c(C(=O)NC1CCN(C(=O)CO)CC1)n2C` [Example 54, 6-ethyl-5-[(furan-3-ylcarbonyl)amino]-N-[1-(hydroxyacetyl)piperidin-4-yl]-1-methyl-3-(2,2,2-trifluoroethoxy)-1H-pyrrolo[2,3-b]pyridine-2-carboxamide] the value was 99%.
Take `CCOc1c(C(=O)NC2CCN(C(=O)CO)CC2)n(C)c2cc(CC)c(NC(=O)c3ccccc3)nc12` [Example 129, 3-ethoxy-6-ethyl-N-[1-(hydroxyacetyl)piperidin-4-yl]-1-methyl-5-[(phenylcarbonyl)amino]-1H-pyrrolo[3,2-b]pyridine-2-carboxamide]: the inhibition at 1 µM was found to be 92%.
In the case of `CCc1cc2c(cc1NC(=O)c1ccsc1)c(OCC(F)(F)F)c(C(=O)NC1CCN(C(=O)CO)CC1)n2C` [Example 147, 6-ethyl-N-[1-(hydroxyacetyl)piperidin-4-yl]-1-methyl-5-[(thiophen-3-ylcarbonyl)amino]-3-(2,2,2-trifluoroethoxy)-1H-indole-2-carboxamide], the inhibition at 1 µM turned out to be 91%.
For the molecule `CCc1nc2c(cc1NC(=O)c1cscc1OC)c(OC(C)C)c(C(=O)NC1CCN(C(=O)CO)CC1)n2C` [Example 62, 6-ethyl-N-[1-(hydroxyacetyl)piperidin-4-yl]-5-{[(4-methoxythiophene-3-yl)carbonyl]amino}-1-methyl-3-(1-methylethoxy)-1H-pyrrolo[2,3-b]pyridine-2-carboxamide], the inhibition at 1 µM amounted to 98%.
On the same count and under the same terms, for `CCc1cc2c(nc1NC(=O)c1cccs1)c(OC(C)C)c(C(=O)NC1CCN(C(=O)CO)CC1)n2C` [Example 133, 6-ethyl-N-[1-(hydroxyacetyl)piperidin-4-yl]-1-methyl-3-(1-methylethoxy)-5-[(thiophen-2-ylcarbonyl)amino]-1H-pyrrolo[3,2-b]pyridine-2-carboxamide] the value was 90%.
The same measure, in the same setting: for `CCc1cc2c(nc1-c1ccc(F)cc1)c(OC(C)C)c(C(=O)NC1CCN(C(=O)CO)CC1)n2C` [Example 132, 6-ethyl-5-(4-fluorophenyl)-N-[1-(hydroxyacetyl)piperidin-4-yl]-1-methyl-3-(1-methylethoxy)-1H-pyrrolo[3,2-b]pyridine-2-carboxamide] the value was 86%; for `CCc1cc2c(cc1NC(=O)c1ccc(F)cc1)c(OC(C)C)c(C(=O)NC1CCN(C(=O)CO)CC1)n2C` [Example 168, 6-ethyl-5-{[(4-fluorophenyl)carbonyl]amino}-N-[1-(hydroxyacetyl)piperidin-4-yl]-1-methyl-3-(1-methylethoxy)-1H-indole-2-carboxamide], 97%; for `CCc1nc2c(nc1NC(=O)c1ccccc1)c(OC(C)C)c(C(=O)NC1CCN(C(=O)CO)CC1)n2C` [Example 163, 3-ethyl-N-[1-(hydroxyacetyl)piperidin-4-yl]-5-methyl-7-(1-methylethoxy)-2-[(phenylcarbonyl)amino]-5H-pyrrolo[2,3-b]pyrazine-6-carboxamide], 98%.
Same read-out and setting: for `CCc1nc2c(nc1NC(=O)c1ccccc1)c(OCC(F)(F)F)c(C(=O)NC1CCN(C(=O)CO)CC1)n2C` [Example 160, 3-ethyl-N-[1-(hydroxyacetyl)piperidin-4-yl]-5-methyl-2-[(phenylcarbonyl)amino]-7-(2,2,2-trifluoroethoxy)-5H-pyrrolo[2,3-b]pyrazine-6-carboxamide] the value was 99%.
As for `CCc1nc2c(cc1NC(=O)c1cccs1)c(OC(C)C)c(C(=O)NC1CCN(C(=O)CO)CC1)n2C` [Example 51, 6-ethyl-N-[1-(hydroxyacetyl)piperidin-4-yl]-1-methyl-3-(1-methylethoxy)-5-[(thiophen-2-ylcarbonyl)amino]-1H-pyrrolo[2,3-b]pyridine-2-carboxamide], the inhibition at 1 µM is 94%.
On the same count and under the same terms, for `Cc1cc2c(nc1-c1ccccc1)c(OCC(F)(F)F)c(C(=O)NC1CCN(C(=O)CO)CC1)n2C` [Example 136, N-[1-(hydroxyacetyl)piperidin-4-yl]-1,6-dimethyl-5-phenyl-3-(2,2,2-trifluoroethoxy)-1H-pyrrolo[3,2-b]pyridine-2-carboxamide] the value was 95%; for `CCc1nc2c(cc1NC(=O)c1ccccc1F)c(OCC(F)(F)F)c(C(=O)NC1CCN(C(=O)CO)CC1)n2C` [Example 22, 6-ethyl-5-{[(2-fluorophenyl)carbonyl]amino}-N-[1-(hydroxyacetyl)piperidin-4-yl]-1-methyl-3-(2,2,2-trifluoroethoxy)-1H-pyrrolo[2,3-b]pyridine-2-carboxamide], 93%.
Still for that read-out and setting: the result for `CCc1nc2c(cc1Nc1cccc(OC)c1)c(OCC(F)(F)F)c(C(=O)NC1CCN(C(=O)CO)CC1)n2C` [Example 5, 6-ethyl-N-[1-(hydroxyacetyl)piperidin-4-yl]-5-[(3-methoxyphenyl)amino]-1-methyl-3-(2,2,2-trifluoroethoxy)-1H-pyrrolo[2,3-b]pyridine-2-carboxamide] reads 97%.

The inhibition is the drop in the measured response relative to a control, in per cent.
